Laboratory results taken from paper PMC7315563, “Bioactive fluorenes. Part III: 2,7-dichloro-9H-fluorene-based thiazolidinone and azetidinone analogues as anticancer and antimicrobial against multidrug resistant strains agents” (BMC Chemistry, 2020).
Converted amounts (≈) assume the structure as drawn.

How the values were obtained:
[1] = tested on: A549 human lung cancer cells; assay: cell viability assay (MTT); assay type: cell-based; conditions: 24 h; for viability at 1 µg/mL: read-out: Validity (%) for sample concentrations (µg/mL) 1; for viability at 10 µg/mL: read-out: Validity (%) for sample concentrations (µg/mL) 10; for viability at 31.25 µg/mL: read-out: Validity (%) for sample concentrations (µg/mL) 31.25; for viability at 62.5 µg/mL: 62.50 µg/mL, read-out: Validity (%) for sample concentrations (µg/mL) 62.50; for viability at 125 µg/mL: read-out: Validity (%) for sample concentrations (µg/mL) 125; for viability at 250 µg/mL: read-out: Validity (%) for sample concentrations (µg/mL) 250; for viability at 500 µg/mL: read-out: Validity (%) for sample concentrations (µg/mL) 500; for viability at 1000 µg/mL: read-out: Validity (%) for sample concentrations (µg/mL) 1000
Protocol: WI-38 normal lung fibroblast cells, A549 lung cancer cells, and MDA-MB-231 breast cancer cells were obtained from VACSERA—Cell Culture Unit, Cairo, Egypt. The cell lines were originally obtained from the American Tissue Culture Collection (ATCC). WI-38, A549, and MDA-MB-231 cell lines were cultured in RPMI-1640 medium supplemented with 10% inactivate fetal bovine serum (FBS) and 1% penicillin/streptomycin were bought (Gibco, Invitrogen, CA). WI-38, A549, and MDA-MB-231 cells were seeded into 96-well plates (at a density of 5000 cells/well). […] Cell viability was then assessed using the MTT assay (Sigma Aldrich, St. Louis, MO, USA), and the absorbance was read at 570 nm using an ELISA microplate reader (Molecular Devices, Downingtown, PA, USA).

[2] = tested on: WI-38 human normal fibroblast cells; assay: cell viability assay (MTT); assay type: cell-based; conditions: 24 h; for viability at 31.25 µg/mL: read-out: Validity (%) for sample concentrations (µg/mL) 31.25; for viability at 62.5 µg/mL: 62.50 µg/mL, read-out: Validity (%) for sample concentrations (µg/mL) 62.50; for viability at 125 µg/mL: read-out: Validity (%) for sample concentrations (µg/mL) 125; for viability at 250 µg/mL: read-out: Validity (%) for sample concentrations (µg/mL) 250; for viability at 500 µg/mL: read-out: Validity (%) for sample concentrations (µg/mL) 500
Protocol: (§1) WI-38 normal lung fibroblast cells, A549 lung cancer cells, and MDA-MB-231 breast cancer cells were obtained from VACSERA—Cell Culture Unit, Cairo, Egypt. The cell lines were originally obtained from the American Tissue Culture Collection (ATCC). WI-38, A549, and MDA-MB-231 cell lines were cultured in RPMI-1640 medium supplemented with 10% inactivate fetal bovine serum (FBS) and 1% penicillin/streptomycin were bought (Gibco, Invitrogen, CA). WI-38, A549, and MDA-MB-231 cells were seeded into 96-well plates (at a density of 5000 cells/well). On the following day, cells were treated with different concentrations (0, 1, 10, 31.25, 62.5, 125, 250, 500 µg/mL) of 16 fluorene derivatives in fresh medium and incubated for another 24 h. Cell viability was then assessed using the MTT assay (Sigma Aldrich, St. Louis, MO, USA), and the absorbance was read at 570 nm using an ELISA microplate reader (Molecular Devices, Downingtown, PA, USA).

[3] = tested on: MDA-MB-231 human breast cancer cells; assay: cell viability assay (MTT); assay type: cell-based; conditions: 24 h; for viability at 1 µg/mL: read-out: Validity (%) for sample concentrations (µg/mL) 1; for viability at 10 µg/mL: read-out: Validity (%) for sample concentrations (µg/mL) 10; for viability at 31.25 µg/mL: read-out: Validity (%) for sample concentrations (µg/mL) 31.25; for viability at 62.5 µg/mL: read-out: Validity (%) for sample concentrations (µg/mL) 62.5; for viability at 125 µg/mL: read-out: Validity (%) for sample concentrations (µg/mL) 125; for viability at 250 µg/mL: read-out: Validity (%) for sample concentrations (µg/mL) 250; for viability at 500 µg/mL: read-out: Validity (%) for sample concentrations (µg/mL) 500
Protocol: as §1

[4] = tested on: Staphylococcus aureus (S. aureus), multidrug resistant clinical isolate; assay: agar well diffusion assay; assay type: cell-based; conditions: Staphylococcus aureus; S. aureus; 500 µg/mL of tested compound; 24 h
From the text: All microbial strains were kindly provided from the department of Medical Microbiology and Immunology faculty of Medicine Assiut University, these clinical isolates were obtained from clinical cases of infections admitted to Assiut University hospital as urinary tract infections, corneal ulcers, bacterial and fungal pneumonia, otomycosis, oral thrush and wound infections.
The clinical isolates used were multidrug resistant strains, they were resistant to β lactam (penicillin, amoxacillin, oxacillin), cephalosporins (cefazolin, cefaclor and cefepime) and macrolides (erythromycin and clarithromycin), they included Gram positive bacteria as Staphylococcus aureus (S. aureus), Methicillin-resistant Staphylococcus aureus (MRSA), Streptococcus pneumoniae (S. pneumoniae), and Gram negative bacteria as Escherichia coli (E. coli), Klebsiella pneumoniae (K. pneumoniae), Pseudomonas aeruginosa (P. aeruginosa), and Acinetobacter baumannii (A. baumannii). The fungal strains that were tested are Aspergillus flavus (A. flavus), A. niger (A. niger) and Candida albicans (C. albicans).
The antimicrobial activity of the fluorene derivatives was initially evaluated by agar well diffusion assay. Mueller–Hinton agar (CM0337) was poured into Petri dishes at 50–60 °C and left to solidify for 15 min. Subsequently, overnight microbial suspensions of tested strains was adjusted to turbidity of 0.5 McFarland Standard, which equals to 1–2 × 10^8 CFU/mL for bacteria and 1–5 × 10^6 for fungi. The microbial inoculums were then diluted in 1:100 ratio in case of bacteria and 1:10 ratio in case of fungi in order to get 1–5 × 10^5 CFU/mL. a sterile cotton swab was dipped into the adjusted microbial suspension and the Mueller–Hinton agar plates were inoculated by evenly streaking cotton swab over the agar medium. Then wells with a diameter of 0.5 cm were cut in the medium with a sterile cork borer. Stock solutions of the flourene derivatives were diluted in DMSO 1% to get 500 μg/mL concentrations. The tested flourene derivatives and controls (50 μL) were dispensed into the wells. The plates were incubated for 24 h at 37 °C for bacteria and C. albicans while at 25 °C for A. falvus and A. niger. The diameters of zones of inhibition (ZOI) around the wells were measured in mm. Following control agents were used: positive control agents—vancomycin (50 μg/mL) for Gram positive bacteria, gentamicin (10 μg/mL) (for Gram negative bacteria) and fluconazole 25 μg/mL for fungi and negative control agent is 1% DMSO.

CN(C)c1ccc(C2SCC(=O)N2c2nc(-c3cc(Cl)cc4c3-c3ccc(Cl)cc3C4)cs2)cc1 (centres unmarked) [5e, 3-(4-(2,7-Dichloro-9H-fluoren-4-yl)thiazol-2-yl)-2-(4-(dimethylamino)phenyl)thiazolidin-4-one]
viability at 1 µg/mL [1]: 93.4%
viability at 10 µg/mL [1]: 90.2%
viability at 31.25 µg/mL [1]: 85.6%
viability at 62.5 µg/mL [1]: 77.3%
viability at 125 µg/mL [1]: 72.2%
viability at 250 µg/mL [1]: 65.7%
viability at 500 µg/mL [1]: 62.2%
viability at 1000 µg/mL [1]: 48.9%
IC50 [1]: 847 µg/mL (≈ 1570 µM)
viability at 31.25 µg/mL [2]: 92.4%
viability at 62.5 µg/mL [2]: 85.7%
viability at 125 µg/mL [2]: 74.4%
viability at 250 µg/mL [2]: 69.3%
viability at 500 µg/mL [2]: 62.9%
IC50 [2]: > 500 µg/mL
viability at 1 µg/mL [3]: 97.3%
viability at 10 µg/mL [3]: 96.3%
viability at 31.25 µg/mL [3]: 93.6%
viability at 62.5 µg/mL [3]: 92.6%
viability at 125 µg/mL [3]: 85.5%
viability at 250 µg/mL [3]: 75.9%
viability at 500 µg/mL [3]: 73.7%
IC50 [3]: > 500 µg/mL
melting point: 94 to 96 °C

O=C1CSC(c2ccccc2)N1c1nc(-c2cc(Cl)cc3c2-c2ccc(Cl)cc2C3)cs1 (centres unmarked) [5a, 3-(4-(2,7-Dichloro-9H-fluoren-4-yl)thiazol-2-yl)-2-phenylthiazolidin-4-one]
zone of inhibition at 500 µg/mL [4]: 3 mm
viability at 1 µg/mL [1]: 95.6%
viability at 10 µg/mL [1]: 91.4%
viability at 31.25 µg/mL [1]: 86.8%
viability at 62.5 µg/mL [1]: 82.3%
viability at 125 µg/mL [1]: 79.7%
viability at 250 µg/mL [1]: 75.4%
viability at 500 µg/mL [1]: 45.5%
viability at 1000 µg/mL [1]: 12.5%
IC50 [1]: 413 µg/mL (≈ 834 µM)
viability at 31.25 µg/mL [2]: 89.8%
viability at 62.5 µg/mL [2]: 83.3%
viability at 125 µg/mL [2]: 80.6%
viability at 250 µg/mL [2]: 77.3%
viability at 500 µg/mL [2]: 74.3%
IC50 [2]: > 500 µg/mL
viability at 1 µg/mL [3]: 98.3%
viability at 10 µg/mL [3]: 96.7%
viability at 31.25 µg/mL [3]: 93.6%
viability at 62.5 µg/mL [3]: 86.1%
viability at 125 µg/mL [3]: 85.9%
viability at 250 µg/mL [3]: 82.5%
viability at 500 µg/mL [3]: 75.8%
IC50 [3]: > 500 µg/mL
melting point: 79 to 82 °C

O=C1CSC(c2ccc(Cl)cc2)N1c1nc(-c2cc(Cl)cc3c2-c2ccc(Cl)cc2C3)cs1 (centres unmarked) [5c, 2-(4-Chlorophenyl)-3-(4-(2,7-dichloro-9H-fluoren-4-yl)thiazol-2-yl)thiazolidin-4-one]
zone of inhibition at 500 µg/mL [4]: 3 mm
viability at 1 µg/mL [1]: 91.2%
viability at 10 µg/mL [1]: 90.1%
viability at 31.25 µg/mL [1]: 89.2%
viability at 62.5 µg/mL [1]: 80.9%
viability at 125 µg/mL [1]: 62.6%
viability at 250 µg/mL [1]: 59.8%
viability at 500 µg/mL [1]: 46.3%
viability at 1000 µg/mL [1]: 14.9%
IC50 [1]: 415 µg/mL (≈ 783 µM)
viability at 31.25 µg/mL [2]: 89.7%
viability at 62.5 µg/mL [2]: 87.3%
viability at 125 µg/mL [2]: 83.8%
viability at 250 µg/mL [2]: 77.5%
viability at 500 µg/mL [2]: 71.3%
IC50 [2]: > 500 µg/mL
viability at 1 µg/mL [3]: 97.1%
viability at 10 µg/mL [3]: 95.7%
viability at 31.25 µg/mL [3]: 95.8%
viability at 62.5 µg/mL [3]: 92.1%
viability at 125 µg/mL [3]: 86.3%
viability at 250 µg/mL [3]: 84.5%
viability at 500 µg/mL [3]: 83%
IC50 [3]: > 500 µg/mL
melting point: 83 to 85 °C
